#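 Following 48 hours of exposure in 96-well plates, responses at five concentrations were used to interpolate endpoints linearly. At the GI50, growth is halved.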 Active and inactive are the calls of the source. No stated cut-off is given here; in the data, active = GI50 up to about 1.1 µM and inactive = higher.
# How the values were obtained:
# Experiment in all cases: inhibition of tumour cell growth, NCI panel, 48 h
# 786-0 = system: 786-0
# EKVX = system: EKVX
# HCC 2998 = system: HCC 2998
# HT-29 = system: HT-29
# KM12 = system: KM12
# M14 = system: M14
# MCF7 = system: MCF7
# MDA-MB-435 = system: MDA-MB-435
# MDA-N = system: MDA-N
# NCI-H226 = system: NCI-H226
# NCI-H460 = system: NCI-H460
# NCI-H522 = system: NCI-H522
# NCI/ADR-RES = system: NCI/ADR-RES
# OVCAR-5 = system: OVCAR-5
# OVCAR-8 = system: OVCAR-8
# PC-3 = system: PC-3
# SK-MEL-5 = system: SK-MEL-5
# SNB-75 = system: SNB-75
# TK-10 = system: TK-10
# UACC-62 = system: UACC-62
Compound,GI50 (786-0),GI50 (EKVX),GI50 (HCC 2998),GI50 (HT-29),GI50 (KM12),GI50 (M14),GI50 (MCF7),GI50 (MDA-MB-435),GI50 (MDA-N),GI50 (NCI-H226),GI50 (NCI-H460),GI50 (NCI-H522),GI50 (NCI/ADR-RES),GI50 (OVCAR-5),GI50 (OVCAR-8),GI50 (PC-3),GI50 (SK-MEL-5),GI50 (SNB-75),GI50 (TK-10),GI50 (UACC-62)
CN(CCN(C)Cc1ccc(Cl)c(Cl)c1)CCN1CCCC1,17.1 µM (inactive),> 64 µM (inactive),14.5 µM (inactive),6.32 µM (inactive),29.9 µM (inactive),23.2 µM (inactive),28.4 µM (inactive),7.82 µM (inactive),13.2 µM (inactive),39.1 µM (inactive),27.5 µM (inactive),19.6 µM (inactive),67.3 µM (inactive),39.3 µM (inactive),20.1 µM (inactive),32.5 µM (inactive),14.9 µM (inactive),26 µM (inactive),40 µM (inactive),2.79 µM (inactive)
CC(NC(=O)c1ccc(NP(=O)(OCc2ccc([N+](=O)[O-])o2)N(C)CCCCCl)cc1)c1ccc(OCC2CCCCC2)c(C(N)=O)c1 (stereo not given),17.5 µM (inactive),–,11.4 µM (inactive),18.3 µM (inactive),13.8 µM (inactive),–,3.15 µM (inactive),12 µM (inactive),17.7 µM (inactive),16.4 µM (inactive),17.1 µM (inactive),15.5 µM (inactive),61.8 µM (inactive),25.4 µM (inactive),31.6 µM (inactive),19.5 µM (inactive),4.56 µM (inactive),11 µM (inactive),23.4 µM (inactive),12.6 µM (inactive)
Cc1cc(S(=O)(=O)Nc2nc(Nc3ccc4ccccc4c3)n[nH]2)c(S)cc1Cl,47.3 µM (inactive),> 100 µM (inactive),61.4 µM (inactive),> 100 µM (inactive),25.4 µM (inactive),46.8 µM (inactive),74.8 µM (inactive),24.9 µM (inactive),13.7 µM (inactive),34.1 µM (inactive),34.8 µM (inactive),30.3 µM (inactive),> 100 µM (inactive),73.8 µM (inactive),64.3 µM (inactive),33.6 µM (inactive),22.5 µM (inactive),43.3 µM (inactive),> 100 µM (inactive),66.4 µM (inactive)
COc1ccc(/C=C/C(=O)N[C@@H]2C(=O)N3[C@@H]2SC(C)(C)[C@@H]3C(=O)O)cc1,> 100 µM (inactive),> 100 µM (inactive),> 100 µM (inactive),> 100 µM (inactive),> 100 µM (inactive),> 100 µM (inactive),> 100 µM (inactive),> 100 µM (inactive),> 100 µM (inactive),> 100 µM (inactive),> 100 µM (inactive),69.2 µM (inactive),> 100 µM (inactive),> 100 µM (inactive),> 100 µM (inactive),> 100 µM (inactive),> 100 µM (inactive),> 100 µM (inactive),> 100 µM (inactive),> 100 µM (inactive)
c1ccc(C/C(=N\Nc2nc3ccccc3o2)c2ccccn2)cc1,< 0.0193 µM (active),< 0.01 µM (active),< 0.0163 µM (active),< 0.01 µM (active),0.264 µM (active),0.0382 µM (active),< 0.01 µM (active),0.638 µM (active),0.355 µM (active),< 0.0483 µM (active),0.0931 µM (active),0.191 µM (active),0.0246 µM (active),< 0.01 µM (active),0.0321 µM (active),< 0.01 µM (active),0.0769 µM (active),–,0.0668 µM (active),0.387 µM (active)
COC(=O)[C@@H]1C[C@]2(CC=C(C)C)c3ccccc3N(S(=O)(=O)c3ccccc3)[C@@H]2N1C(=O)OC,25.1 µM (inactive),3.83 µM (inactive),10.6 µM (inactive),23.5 µM (inactive),19.7 µM (inactive),–,8.87 µM (inactive),10.4 µM (inactive),26.9 µM (inactive),19 µM (inactive),14.1 µM (inactive),10.3 µM (inactive),10.4 µM (inactive),> 100 µM (inactive),20.3 µM (inactive),17 µM (inactive),11.6 µM (inactive),13.1 µM (inactive),32 µM (inactive),4.5 µM (inactive)
Cc1cc(S(=O)(=O)N2CCNNC2=O)c(S)cc1Cl,19.9 µM (inactive),> 100 µM (inactive),> 100 µM (inactive),–,> 100 µM (inactive),41.6 µM (inactive),77.3 µM (inactive),> 100 µM (inactive),> 100 µM (inactive),> 100 µM (inactive),> 100 µM (inactive),22.5 µM (inactive),> 100 µM (inactive),> 100 µM (inactive),> 100 µM (inactive),> 100 µM (inactive),> 100 µM (inactive),> 100 µM (inactive),> 100 µM (inactive),> 100 µM (inactive)

# From ChEMBL document CHEMBL1201862, “PubChem BioAssay data set” (2004)
